Test results reported in the kinase profiling compilation of Christmann-Franck et al. (2016).

Experiments:
Assay in all cases: KINOMEscan competition binding
Settings in all cases: compound 10.0 µM
[1] = test system: FLT3 (human), P36888 [N841I]
MAPKAPK2 (human) = MAPKAPK2 (human) (UniProt P49137)
GRK4 (human) = GRK4 (human) (UniProt P32298)
HIPK2 (human) = HIPK2 (human) (UniProt Q9H2X6)
[2] = test system: PIK3CA (human), P42336 [M1043I]
BMPR1B (human) = BMPR1B (human) (UniProt O00238)
ROS1 (human) = ROS1 (human) (UniProt P08922)
CPK1 (P.falciparum) = test system: CPK1 (P.falciparum)
PIP4K2B (human) = PIP4K2B (human) (UniProt P78356)
PIP4K2B (human), sequence (P78356 whole entry, looked up): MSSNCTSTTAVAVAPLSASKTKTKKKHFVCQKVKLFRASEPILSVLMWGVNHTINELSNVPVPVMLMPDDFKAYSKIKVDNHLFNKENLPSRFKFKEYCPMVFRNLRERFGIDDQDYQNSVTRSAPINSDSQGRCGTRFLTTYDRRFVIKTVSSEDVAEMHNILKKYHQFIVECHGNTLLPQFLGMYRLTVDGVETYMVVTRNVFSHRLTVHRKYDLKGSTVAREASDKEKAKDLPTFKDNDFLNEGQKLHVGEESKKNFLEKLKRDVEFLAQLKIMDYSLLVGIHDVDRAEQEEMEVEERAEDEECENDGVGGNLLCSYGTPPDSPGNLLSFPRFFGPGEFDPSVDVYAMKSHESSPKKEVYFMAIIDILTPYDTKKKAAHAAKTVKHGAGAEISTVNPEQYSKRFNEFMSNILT

ULK2 (human) = ULK2 (human) (UniProt Q8IYT8)
MAPK13 (human) = MAPK13 (human) (UniProt O15264)
CLK4 (human) = CLK4 (human) (UniProt Q9HAZ1)
AKT1 (human) = AKT1 (human) (UniProt P31749)
PAK7 (human) = PAK7 (human) (UniProt Q9P286)
ROCK1 (human) = ROCK1 (human) (UniProt Q13464)
CAMK2A (human) = CAMK2A (human) (UniProt Q9UQM7)
CAMK2A (human), sequence (Q9UQM7 whole entry, looked up): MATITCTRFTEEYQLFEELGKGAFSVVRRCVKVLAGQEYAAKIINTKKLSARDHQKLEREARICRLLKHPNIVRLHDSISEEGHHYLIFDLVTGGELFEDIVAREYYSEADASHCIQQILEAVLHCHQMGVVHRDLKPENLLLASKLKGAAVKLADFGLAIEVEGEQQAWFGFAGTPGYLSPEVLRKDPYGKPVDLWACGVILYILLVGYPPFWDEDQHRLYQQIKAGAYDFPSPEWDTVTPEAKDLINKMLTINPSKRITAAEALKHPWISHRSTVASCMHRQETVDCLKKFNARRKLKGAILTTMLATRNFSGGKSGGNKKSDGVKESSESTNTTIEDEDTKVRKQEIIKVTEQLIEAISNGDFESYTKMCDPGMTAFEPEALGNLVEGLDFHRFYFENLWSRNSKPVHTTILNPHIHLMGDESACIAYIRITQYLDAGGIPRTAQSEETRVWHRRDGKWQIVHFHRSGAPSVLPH

MAP4K1 (human) = MAP4K1 (human) (UniProt Q92918)
CDK8 (human) = CDK8 (human) (UniProt P49336)
MET (human) = MET (human) (UniProt P08581)
RPS6KA4 KD2 (human) = RPS6KA4 KD2 (human) (UniProt O75676)
RPS6KA4 KD2 (human), sequence (O75676 whole entry, looked up): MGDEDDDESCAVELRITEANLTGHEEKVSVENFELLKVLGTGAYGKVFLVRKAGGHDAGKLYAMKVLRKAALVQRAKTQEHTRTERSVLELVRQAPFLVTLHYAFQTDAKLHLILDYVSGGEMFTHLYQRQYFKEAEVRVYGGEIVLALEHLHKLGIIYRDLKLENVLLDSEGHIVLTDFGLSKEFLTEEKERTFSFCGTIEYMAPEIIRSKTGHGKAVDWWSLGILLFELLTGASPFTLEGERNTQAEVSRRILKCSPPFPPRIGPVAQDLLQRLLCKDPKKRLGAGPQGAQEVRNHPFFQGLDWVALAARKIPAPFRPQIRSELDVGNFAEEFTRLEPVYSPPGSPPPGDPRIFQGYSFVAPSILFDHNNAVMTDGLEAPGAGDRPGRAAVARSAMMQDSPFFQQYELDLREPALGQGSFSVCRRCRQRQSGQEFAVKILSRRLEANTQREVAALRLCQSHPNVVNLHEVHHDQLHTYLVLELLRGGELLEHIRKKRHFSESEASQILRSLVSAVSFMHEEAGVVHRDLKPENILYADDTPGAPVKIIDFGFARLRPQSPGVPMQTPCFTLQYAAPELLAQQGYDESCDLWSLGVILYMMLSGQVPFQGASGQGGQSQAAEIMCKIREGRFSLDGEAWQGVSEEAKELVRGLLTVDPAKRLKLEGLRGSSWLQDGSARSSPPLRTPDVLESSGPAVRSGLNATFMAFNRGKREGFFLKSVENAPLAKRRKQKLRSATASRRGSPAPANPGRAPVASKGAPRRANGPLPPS

LATS2 (human) = LATS2 (human) (UniProt Q9NRM7)
LATS2 (human), sequence (Q9NRM7 whole entry, looked up): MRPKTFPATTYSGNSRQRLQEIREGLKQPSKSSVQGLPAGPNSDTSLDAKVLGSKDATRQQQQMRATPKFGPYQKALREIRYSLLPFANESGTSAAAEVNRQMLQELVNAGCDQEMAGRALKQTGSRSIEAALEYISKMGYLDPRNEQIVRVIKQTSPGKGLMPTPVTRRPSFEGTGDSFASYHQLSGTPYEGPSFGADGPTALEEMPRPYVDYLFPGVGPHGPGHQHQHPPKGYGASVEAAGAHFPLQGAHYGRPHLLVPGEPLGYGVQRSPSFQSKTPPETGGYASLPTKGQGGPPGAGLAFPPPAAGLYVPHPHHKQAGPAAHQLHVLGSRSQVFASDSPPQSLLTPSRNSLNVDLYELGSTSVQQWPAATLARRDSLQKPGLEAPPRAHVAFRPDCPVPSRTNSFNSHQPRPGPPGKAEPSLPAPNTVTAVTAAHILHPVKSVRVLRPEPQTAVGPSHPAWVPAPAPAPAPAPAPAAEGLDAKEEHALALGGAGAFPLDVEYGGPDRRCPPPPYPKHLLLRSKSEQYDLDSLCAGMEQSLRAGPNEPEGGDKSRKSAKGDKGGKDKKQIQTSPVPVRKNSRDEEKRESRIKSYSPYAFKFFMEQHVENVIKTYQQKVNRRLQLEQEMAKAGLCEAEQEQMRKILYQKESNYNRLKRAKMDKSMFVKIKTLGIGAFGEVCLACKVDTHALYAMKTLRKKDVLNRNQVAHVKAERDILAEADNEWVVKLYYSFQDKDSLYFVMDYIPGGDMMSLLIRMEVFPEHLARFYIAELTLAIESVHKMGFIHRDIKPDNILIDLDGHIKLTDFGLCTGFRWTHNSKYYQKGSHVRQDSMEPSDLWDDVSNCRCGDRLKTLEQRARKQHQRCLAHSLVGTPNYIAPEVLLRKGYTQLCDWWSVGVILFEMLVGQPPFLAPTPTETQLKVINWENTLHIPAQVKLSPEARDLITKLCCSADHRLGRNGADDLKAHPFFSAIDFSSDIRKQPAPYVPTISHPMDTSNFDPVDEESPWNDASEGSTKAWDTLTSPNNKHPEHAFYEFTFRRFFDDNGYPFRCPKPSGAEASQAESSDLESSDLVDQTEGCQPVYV

PTK2B (human) = PTK2B (human) (UniProt Q14289)
NEK1 (human) = NEK1 (human) (UniProt Q96PY6)
[3] = target: TYK2 JH1 catalytic (human) (UniProt P29597)
MUSK (human) = MUSK (human) (UniProt O15146)
PRKACB (human) = PRKACB (human) (UniProt P22694)
PHKG1 (human) = PHKG1 (human) (UniProt Q16816)
PHKG1 (human), sequence (Q16816 whole entry, looked up): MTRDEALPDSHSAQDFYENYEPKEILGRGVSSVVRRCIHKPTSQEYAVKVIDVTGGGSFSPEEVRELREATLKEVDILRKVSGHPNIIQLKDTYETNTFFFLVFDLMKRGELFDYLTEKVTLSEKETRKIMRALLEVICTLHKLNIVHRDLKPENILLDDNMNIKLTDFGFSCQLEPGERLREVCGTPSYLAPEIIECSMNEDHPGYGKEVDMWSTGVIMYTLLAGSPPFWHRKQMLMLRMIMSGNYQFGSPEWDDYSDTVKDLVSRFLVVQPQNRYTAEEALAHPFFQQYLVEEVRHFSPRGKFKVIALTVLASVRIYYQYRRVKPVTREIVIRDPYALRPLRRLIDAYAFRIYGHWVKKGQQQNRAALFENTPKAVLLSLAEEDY

IKBKB (human) = IKBKB (human) (UniProt O14920)
CDKL3 (human) = CDKL3 (human) (UniProt Q8IVW4)
ULK3 (human) = ULK3 (human) (UniProt Q6PHR2)
FLT4 (human) = FLT4 (human) (UniProt P35916)
CDK4 CCND3 (human) = CDK4 CCND3 (human) (UniProt P11802+P30281)
CSNK1G3 (human) = CSNK1G3 (human) (UniProt Q9Y6M4)
STK17B (human) = STK17B (human) (UniProt O94768)
STK17B (human), sequence (O94768 whole entry, looked up): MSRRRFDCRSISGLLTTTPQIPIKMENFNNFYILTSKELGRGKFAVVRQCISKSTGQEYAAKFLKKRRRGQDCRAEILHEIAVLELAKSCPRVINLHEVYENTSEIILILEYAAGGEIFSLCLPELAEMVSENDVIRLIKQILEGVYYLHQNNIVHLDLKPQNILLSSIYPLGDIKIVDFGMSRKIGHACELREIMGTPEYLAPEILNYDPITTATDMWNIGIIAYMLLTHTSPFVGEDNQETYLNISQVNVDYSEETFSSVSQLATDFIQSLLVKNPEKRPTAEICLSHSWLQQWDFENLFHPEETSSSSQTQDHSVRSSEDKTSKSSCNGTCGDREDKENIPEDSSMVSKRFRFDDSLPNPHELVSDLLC

HIPK4 (human) = HIPK4 (human) (UniProt Q8NE63)
RPS6KA3 KD1 (human) = RPS6KA3 KD1 (human) (UniProt P51812)
RPS6KA3 KD1 (human), sequence (P51812 whole entry, looked up): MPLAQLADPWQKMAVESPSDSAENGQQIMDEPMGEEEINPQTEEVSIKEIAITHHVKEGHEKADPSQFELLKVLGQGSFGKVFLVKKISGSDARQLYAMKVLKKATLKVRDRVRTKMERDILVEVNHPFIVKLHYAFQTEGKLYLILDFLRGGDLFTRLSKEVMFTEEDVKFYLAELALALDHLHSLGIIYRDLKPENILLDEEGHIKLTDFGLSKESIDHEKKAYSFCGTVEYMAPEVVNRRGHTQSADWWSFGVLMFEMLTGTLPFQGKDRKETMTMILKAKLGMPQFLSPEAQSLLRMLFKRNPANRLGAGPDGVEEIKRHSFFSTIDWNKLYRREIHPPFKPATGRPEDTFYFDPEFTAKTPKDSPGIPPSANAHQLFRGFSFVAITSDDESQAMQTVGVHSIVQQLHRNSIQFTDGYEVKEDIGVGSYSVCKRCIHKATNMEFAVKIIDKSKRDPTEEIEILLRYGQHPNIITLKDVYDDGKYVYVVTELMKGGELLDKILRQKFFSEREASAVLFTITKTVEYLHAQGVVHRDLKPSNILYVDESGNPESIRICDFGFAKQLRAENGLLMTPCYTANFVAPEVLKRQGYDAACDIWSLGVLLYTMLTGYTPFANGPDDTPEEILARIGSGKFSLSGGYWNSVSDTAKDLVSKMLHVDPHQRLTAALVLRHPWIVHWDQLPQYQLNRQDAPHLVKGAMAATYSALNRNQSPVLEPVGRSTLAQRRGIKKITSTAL

CAMK2B (human) = CAMK2B (human) (UniProt Q13554)
[4] = test system: ABL1 (human), P00519 [M351T]
RPS6KA2 KD2 (human) = RPS6KA2 KD2 (human) (UniProt Q15349)
CDK11B (human) = CDK11B (human) (UniProt P21127)
CDK11B (human), sequence (P21127 whole entry, looked up): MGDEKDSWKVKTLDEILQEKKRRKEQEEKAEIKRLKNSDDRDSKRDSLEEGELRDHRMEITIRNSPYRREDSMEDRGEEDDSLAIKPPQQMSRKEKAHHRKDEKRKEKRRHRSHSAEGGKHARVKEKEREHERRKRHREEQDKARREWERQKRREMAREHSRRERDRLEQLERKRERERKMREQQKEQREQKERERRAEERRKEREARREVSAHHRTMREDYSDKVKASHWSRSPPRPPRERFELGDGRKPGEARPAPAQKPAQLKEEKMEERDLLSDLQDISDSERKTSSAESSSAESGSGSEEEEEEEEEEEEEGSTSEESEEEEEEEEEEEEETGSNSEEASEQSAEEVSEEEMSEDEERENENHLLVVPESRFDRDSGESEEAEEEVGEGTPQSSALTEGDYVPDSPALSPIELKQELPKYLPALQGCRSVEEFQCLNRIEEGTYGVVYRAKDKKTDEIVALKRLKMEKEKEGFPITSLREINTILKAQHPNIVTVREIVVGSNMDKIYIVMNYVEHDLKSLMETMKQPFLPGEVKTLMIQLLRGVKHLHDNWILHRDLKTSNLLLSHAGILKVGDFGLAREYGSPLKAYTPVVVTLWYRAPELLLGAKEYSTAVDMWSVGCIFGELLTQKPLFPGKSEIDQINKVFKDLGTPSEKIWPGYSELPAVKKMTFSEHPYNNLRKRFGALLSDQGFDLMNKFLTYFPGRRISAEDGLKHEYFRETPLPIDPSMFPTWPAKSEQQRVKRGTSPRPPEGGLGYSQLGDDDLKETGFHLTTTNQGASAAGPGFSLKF

[5] = test system: FLT3 (human), P36888 [R834Q]

| Compound | kinase still bound, per cent of control [1] [%] | kinase still bound, per cent of control (MAPKAPK2 (human)) [%] | kinase still bound, per cent of control (GRK4 (human)) [%] | kinase still bound, per cent of control (HIPK2 (human)) [%] | kinase still bound, per cent of control (BMPR1B (human)) [%] | kinase still bound, per cent of control (ROS1 (human)) [%] | kinase still bound, per cent of control (PIP4K2B (human)) [%] | kinase still bound, per cent of control (ULK2 (human)) [%] | kinase still bound, per cent of control (MAPK13 (human)) [%] | kinase still bound, per cent of control (CLK4 (human)) [%] | kinase still bound, per cent of control (AKT1 (human)) [%] | kinase still bound, per cent of control (PAK7 (human)) [%] | kinase still bound, per cent of control (ROCK1 (human)) [%] | kinase still bound, per cent of control (CAMK2A (human)) [%] | kinase still bound, per cent of control (MAP4K1 (human)) [%] | per cent of control (CDK8 (human)) [%] | kinase still bound, per cent of control (RPS6KA4 KD2 (human)) [%] | kinase still bound, per cent of control (LATS2 (human)) [%] | kinase still bound, per cent of control (PTK2B (human)) [%] | kinase still bound, per cent of control (NEK1 (human)) [%] | other results |
| --- | --- | --- | --- | --- | --- | --- | --- | --- | --- | --- | --- | --- | --- | --- | --- | --- | --- | --- | --- | --- | --- |
| CCC(=O)N1CCN(c2ccc(-n3c(=O)ccc4cnc5ccc(-c6cnc7ccccc7c6)cc5c43)cc2C(F)(F)F)CC1 | 8.8 | 100 | 90 | 58 | 100 | 71 | 100 | 75 | 39 | 49 | 91 | 87 | 53 | 93 | 30 | 4.6 | 100 | 100 | 100 | 89 | kinase still bound, per cent of control [2]: 8.6%; kinase still bound, per cent of control (CPK1 (P.falciparum)): 36%; kinase still bound, per cent of control (MET (human)): 84%; kinase still bound, per cent of control [3]: 70%; kinase still bound, per cent of control (MUSK (human)): 100%; per cent of control (PRKACB (human)): 100%; kinase still bound, per cent of control (PHKG1 (human)): 100%; kinase still bound, per cent of control (IKBKB (human)): 61%; per cent of control (CDKL3 (human)): 92%; kinase still bound, per cent of control (ULK3 (human)): 100%; kinase still bound, per cent of control (FLT4 (human)): 74%; per cent of control (CDK4 CCND3 (human)): 87%; kinase still bound, per cent of control (CSNK1G3 (human)): 100%; kinase still bound, per cent of control (STK17B (human)): 67%; kinase still bound, per cent of control (HIPK4 (human)): 4.6%; kinase still bound, per cent of control (RPS6KA3 KD1 (human)): 38%; kinase still bound, per cent of control (CAMK2B (human)): 100%; kinase still bound, per cent of control [4]: 100%; kinase still bound, per cent of control (RPS6KA2 KD2 (human)): 85%; per cent of control (CDK11B (human)): 97% |
| CC(C)n1nc(-c2cc3cc(O)ccc3[nH]2)c2c(N)ncnc21 | 5 | 100 | 83 | 0.9 | 0.1 | 100 | 55 | 39 | 97 | 9.7 | 100 | 8.6 | 61 | 53 | 33 | 43 | 0 | 41 | 100 | 61 | kinase still bound, per cent of control (MET (human)): 73%; kinase still bound, per cent of control [5]: 16%; kinase still bound, per cent of control [3]: 8.2%; kinase still bound, per cent of control (MUSK (human)): 100%; per cent of control (PRKACB (human)): 65%; kinase still bound, per cent of control (PHKG1 (human)): 50%; kinase still bound, per cent of control (IKBKB (human)): 84%; per cent of control (CDKL3 (human)): 100%; kinase still bound, per cent of control (ULK3 (human)): 65%; kinase still bound, per cent of control (FLT4 (human)): 0.3%; per cent of control (CDK4 CCND3 (human)): 57%; kinase still bound, per cent of control (STK17B (human)): 40%; kinase still bound, per cent of control (HIPK4 (human)): 27%; kinase still bound, per cent of control (RPS6KA3 KD1 (human)): 0.35%; kinase still bound, per cent of control (CAMK2B (human)): 63%; kinase still bound, per cent of control (RPS6KA2 KD2 (human)): 62%; per cent of control (CDK11B (human)): 100% |
| COC(=O)Nc1ccc(-c2nc(N3CCOCC3)c3cnn(C4CCN(C(=O)OC)CC4)c3n2)cc1 | 78 | 100 | 100 | 65 | 78 | 76 | 100 | 99 | 0 | 94 | 82 | 80 | 82 | 95 | 100 | 100 | 88 | 86 | 92 | 77 | kinase still bound, per cent of control [2]: 6.8%; kinase still bound, per cent of control (CPK1 (P.falciparum)): 100%; kinase still bound, per cent of control [5]: 76%; kinase still bound, per cent of control [3]: 100%; kinase still bound, per cent of control (MUSK (human)): 100%; per cent of control (PRKACB (human)): 97%; kinase still bound, per cent of control (PHKG1 (human)): 81%; kinase still bound, per cent of control (IKBKB (human)): 74%; per cent of control (CDKL3 (human)): 64%; kinase still bound, per cent of control (ULK3 (human)): 88%; kinase still bound, per cent of control (FLT4 (human)): 92%; per cent of control (CDK4 CCND3 (human)): 100%; kinase still bound, per cent of control (CSNK1G3 (human)): 100%; kinase still bound, per cent of control (STK17B (human)): 75%; kinase still bound, per cent of control (HIPK4 (human)): 97%; kinase still bound, per cent of control (RPS6KA3 KD1 (human)): 76%; kinase still bound, per cent of control (CAMK2B (human)): 100%; kinase still bound, per cent of control [4]: 100%; kinase still bound, per cent of control (RPS6KA2 KD2 (human)): 100%; per cent of control (CDK11B (human)): 100% |
